According to ChEMBL document CHEMBL6178014, “Discovery and Administration Optimization of Novel Selective CDK9 Inhibitor, 1-7a-B1, for Improved Pharmacokinetics and Antitumor Efficacy In Vivo” (J Med Chem, 2025):
Activity calls are given as the source filed them. No cut-off for these calls is given here.

How the values were obtained:
[1] = Toxicity in female BALB/c nu-nu mouse xenografted with human HCT-116 cells assessed as body weight loss at 20 mg/kg, po as submicron emulsion administered once daily for 3 weeks; type: organism-based; details: in vivo, 504 h
[2] = Metabolic stability in human liver microsome assessed as intrinsic clearance at 100 uM pre-incubated with compound for 60 mins followed by NADPH addition and measured up to 60 mins by LC-MS/MS analysis; type: ADME; details: liver microsomes, read-out: CLH
CYP2C19 = CYP2C19 (Homo sapiens, UniProt P33261); assay: Inhibition of CYP2C19 in human liver microsome at 10 uM pre-incubated with compound for 10 mins in presence of NADPH-regenerating system by LC-MS/MS analysis relative to control; type: ADME; details: liver microsomes
[3] = Half life in Sprague-Dawley rat at 30 mg/kg, po as submicron emulsion measured after 24 hrs by LC-MS/MS analysis; type: ADME, organism-based; details: in vivo
[4] = Toxicity in female BALB/c nu-nu mouse xenografted with human HCT-116 cells assessed as body weight loss at 40 mg/kg, po administered once daily for 3 weeks; type: organism-based; details: in vivo, 504 h
CDK6/cyclin D3 = CDK6/cyclin D3 (Homo sapiens, UniProt Q00534); assay: Inhibition of CDK6/cycD3 (unknown origin) by ADP-Glo assay; type: protein-complex assay
CDK9/cyclin T1 = CDK9/cyclin T1 (Homo sapiens, UniProt P50750); assay: Inhibition of His-tagged full length human recombinant CDK9/cyclinT1 using KTFCGTPEYLAPEVRREPRILSEEEQEMFRDFDYIADWC as substrate incubated for 60 mins by ADP-Glo kinase assay; type: protein-complex assay
HCT-116 [5] = assay: Effect on MDM2 expression in human HCT-116 cells at 100 to 400 nM incubated for 48 hrs by Western blot analysis; type: functional, cell-based; details: dose 100-400 nM
[6] = target: Cellular tumor antigen p53 (Homo sapiens) (UniProt P04637); assay: Induction of stabilization of wild type p53 in human HCT-116 cells at 100 to 400 nM incubated for 48 hrs by Western blot analysis; type: cell-based; details: dose 100-400 nM
[7] = target: E3 ubiquitin-protein ligase Mdm2 (Homo sapiens) (UniProt Q00987); assay: Inhibition of MDM2 phosphorylation at ser166 residue in human HCT-116 cells at 100 to 400 nM incubated for 48 hrs by Western blot analysis; type: cell-based; details: dose 100-400 nM
[8] = MRT (infinity) in Sprague-Dawley rat at 30 mg/kg, po as submicron emulsion measured after 24 hrs by LC-MS/MS analysis; type: ADME, organism-based; details: in vivo
[9] = Tmax in Sprague-Dawley rat at 30 mg/kg, po as submicron emulsion measured after 24 hrs by LC-MS/MS analysis; type: ADME, organism-based; details: in vivo
HCT-116 [10] = assay: Induction of apoptosis in human HCT-116 cells assessed as increase in caspase-3 activity at 100 to 200 nM incubated for 48 hrs by GreenNuc substrate based flow cytometry analysis; type: functional, cell-based; details: dose 100-200 nM
HCT-116 [11] = assay: Induction of ROS accumulation in human HCT-116 cells at 100 to 400 nM incubated for 48 hrs by […] staining based flow cytometry analysis; type: functional, cell-based; details: dose 100-400 nM
[12] = Stability in human plasma assessed as half life at 100 uM measured up to 120 mins by LC-MS/MS analysis; type: ADME, cell-free
[13] = Toxicity in female BALB/c nu-nu mouse xenografted with human HCT-116 cells assessed as histopathological changes in heart at 20 mg/kg, po as submicron emulsion administered once daily for 3 weeks by H and E staining based analysis; type: organism-based; details: in vivo, 504 h
[14] = AUC (0 to infinity) in Sprague-Dawley rat at 2 mg/kg, iv measured after 24 hrs by LC-MS/MS analysis; type: ADME, organism-based; details: in vivo
[15] = AUC (0 to infinity) in Sprague-Dawley rat at 30 mg/kg, po as submicron emulsion measured after 24 hrs by LC-MS/MS analysis; type: ADME, organism-based; details: in vivo
[16] = target: Cyclin-dependent kinase 9 (Homo sapiens) (UniProt P50750); assay: Inhibition of CDK9 in human HCT-116 cells assessed as reduction in phosphorylation of RNA polymerase II at Ser2 residue at 100 to 400 nM incubated for 48 hrs by Western blot analysis; type: cell-based; details: dose 100-400 nM
[17] = AUC (0 to t) in Sprague-Dawley rat at 30 mg/kg, po as submicron emulsion measured after 24 hrs by LC-MS/MS analysis; type: ADME, organism-based; details: in vivo
Mitochondrial membrane = assay: Induction of mitochondrial membrane depolarization in human HCT-116 cells at 100 to 400 nM incubated for 48 hrs by JC-1 staining based flow cytometry analysis; type: cell membranes; details: dose 100-400 nM
HepG2 = assay: Cytotoxicity against human HepG2 cells assessed as cell viability incubated for 48 hrs by CCK8 assay; type: functional, cell-based
[18] = Toxicity in female BALB/c nu-nu mouse xenografted with human HCT-116 cells assessed as histopathological changes in kidney at 40 mg/kg, po administered once daily for 3 weeks by H and E staining based analysis; type: organism-based; details: in vivo, 504 h
[19] = AUC (0 to infinity) in Sprague-Dawley rat at 30 mg/kg, po measured after 24 hrs by LC-MS/MS analysis; type: ADME, organism-based; details: in vivo
[20] = Volume of distribution in Sprague-Dawley rat at 30 mg/kg, po as submicron emulsion measured after 24 hrs by LC-MS/MS analysis; type: ADME, organism-based; details: in vivo
CDK1/Cyclin A = CDK1/Cyclin A (Homo sapiens, UniProt P06493); assay: Inhibition of CDK1/cyclA2 (unknown origin) by ADP-Glo assay; type: protein-complex assay
[21] = Toxicity in female BALB/c nu-nu mouse xenografted with human HCT-116 cells assessed as histopathological changes in liver at 20 mg/kg, po as submicron emulsion administered once daily for 3 weeks by H and E staining based analysis; type: organism-based; details: in vivo, 504 h
HCT-116 [22] = assay: Induction of apoptosis in human HCT-116 cells assessed as increase in apoptotic cells by measuring red fluorescence by TUNEL staining based fluorescence microscopic analysis; type: functional, cell-based; details: dose 50-400 nM
HCT-116 [23] = assay: Upregulation of p21 expression in human HCT-116 cells at 100 to 400 nM incubated for 48 hrs by Western blot analysis; type: functional, cell-based; details: dose 100-400 nM
CYP2D6 = CYP2D6 (Homo sapiens, UniProt P10635); assay: Inhibition of CYP2D6 in human liver microsome at 10 uM pre-incubated with compound for 10 mins in presence of NADPH-regenerating system by LC-MS/MS analysis relative to control; type: ADME; details: liver microsomes
[24] = Half life in Sprague-Dawley rat at 30 mg/kg, po measured after 24 hrs by LC-MS/MS analysis; type: ADME, organism-based; details: in vivo
[25] = Toxicity in female BALB/c nu-nu mouse xenografted with human HCT-116 cells assessed as histopathological changes in liver at 40 mg/kg, po administered once daily for 3 weeks by H and E staining based analysis; type: organism-based; details: in vivo, 504 h
HCT-116 [26] = assay: Induction of apoptosis in human HCT-116 cells assessed as increase in caspase-3 cleavage incubated for 48 hrs by Western blot analysis; type: functional, cell-based; details: dose 100-400 nM
A549 = assay: Cytotoxicity against human A549 cells assessed as cell viability incubated for 48 hrs by CCK8 assay; type: functional, cell-based
HCT-116 [27] = assay: Effect on RNA polymerase II expression in human HCT-116 cells at 100 to 400 nM incubated for 48 hrs by Western blot analysis; type: functional, cell-based; details: dose 100-400 nM

CDK1/Cyclin A, sequence (P06493 whole entry): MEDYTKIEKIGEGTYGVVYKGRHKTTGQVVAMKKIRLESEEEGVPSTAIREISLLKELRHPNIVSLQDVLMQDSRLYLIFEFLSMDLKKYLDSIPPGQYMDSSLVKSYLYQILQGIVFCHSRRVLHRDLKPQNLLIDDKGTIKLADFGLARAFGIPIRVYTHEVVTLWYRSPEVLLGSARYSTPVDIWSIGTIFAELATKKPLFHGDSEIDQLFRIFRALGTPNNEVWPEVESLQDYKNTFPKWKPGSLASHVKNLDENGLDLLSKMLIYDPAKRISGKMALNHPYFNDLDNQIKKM
CDK1/Cyclin A, sequence (P20248 whole entry, further chain): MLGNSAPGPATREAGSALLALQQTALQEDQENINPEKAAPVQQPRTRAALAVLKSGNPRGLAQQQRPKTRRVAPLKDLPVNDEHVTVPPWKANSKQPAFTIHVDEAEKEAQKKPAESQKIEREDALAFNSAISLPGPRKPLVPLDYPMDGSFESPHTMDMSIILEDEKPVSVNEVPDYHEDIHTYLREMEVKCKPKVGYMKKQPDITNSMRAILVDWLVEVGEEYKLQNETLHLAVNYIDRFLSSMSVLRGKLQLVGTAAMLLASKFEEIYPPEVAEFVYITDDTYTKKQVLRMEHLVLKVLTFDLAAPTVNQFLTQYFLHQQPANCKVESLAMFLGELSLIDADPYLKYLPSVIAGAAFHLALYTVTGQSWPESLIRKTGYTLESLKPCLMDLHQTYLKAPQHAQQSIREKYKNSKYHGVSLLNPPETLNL
CDK9/cyclin T1, sequence (O60563 whole entry): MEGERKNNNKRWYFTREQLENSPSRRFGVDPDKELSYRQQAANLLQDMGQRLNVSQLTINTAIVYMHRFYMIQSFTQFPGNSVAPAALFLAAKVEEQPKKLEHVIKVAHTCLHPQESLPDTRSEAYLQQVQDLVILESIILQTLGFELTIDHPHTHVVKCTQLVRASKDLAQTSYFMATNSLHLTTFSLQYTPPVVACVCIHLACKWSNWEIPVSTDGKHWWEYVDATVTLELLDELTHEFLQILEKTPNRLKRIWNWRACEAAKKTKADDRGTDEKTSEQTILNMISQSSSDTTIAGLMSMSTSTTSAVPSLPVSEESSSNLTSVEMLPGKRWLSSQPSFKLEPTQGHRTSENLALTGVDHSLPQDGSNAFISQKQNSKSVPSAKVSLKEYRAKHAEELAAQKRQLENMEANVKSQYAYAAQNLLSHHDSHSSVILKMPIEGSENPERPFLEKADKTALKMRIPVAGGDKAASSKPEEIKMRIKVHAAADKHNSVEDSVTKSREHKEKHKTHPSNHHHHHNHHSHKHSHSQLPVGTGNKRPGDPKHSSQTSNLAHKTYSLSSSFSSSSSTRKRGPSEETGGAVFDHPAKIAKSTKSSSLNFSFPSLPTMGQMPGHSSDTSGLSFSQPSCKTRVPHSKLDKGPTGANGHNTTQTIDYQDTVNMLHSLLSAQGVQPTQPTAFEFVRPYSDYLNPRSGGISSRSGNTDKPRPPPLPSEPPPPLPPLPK
CDK9/cyclin T1, sequence (P50750 whole entry): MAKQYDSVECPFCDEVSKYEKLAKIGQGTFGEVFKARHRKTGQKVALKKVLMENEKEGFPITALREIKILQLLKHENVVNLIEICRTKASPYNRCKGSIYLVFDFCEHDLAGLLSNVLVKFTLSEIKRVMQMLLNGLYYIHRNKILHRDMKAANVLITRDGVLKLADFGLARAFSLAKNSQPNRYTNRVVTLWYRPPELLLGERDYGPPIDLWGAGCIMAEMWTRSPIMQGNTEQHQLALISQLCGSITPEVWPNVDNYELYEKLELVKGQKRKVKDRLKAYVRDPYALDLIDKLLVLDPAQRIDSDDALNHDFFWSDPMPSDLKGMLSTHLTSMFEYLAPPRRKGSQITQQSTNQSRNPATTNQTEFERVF
Cyclin-dependent kinase 9 (Homo sapiens), sequence (P50750 whole entry): as above
CYP2D6, sequence (P10635 whole entry): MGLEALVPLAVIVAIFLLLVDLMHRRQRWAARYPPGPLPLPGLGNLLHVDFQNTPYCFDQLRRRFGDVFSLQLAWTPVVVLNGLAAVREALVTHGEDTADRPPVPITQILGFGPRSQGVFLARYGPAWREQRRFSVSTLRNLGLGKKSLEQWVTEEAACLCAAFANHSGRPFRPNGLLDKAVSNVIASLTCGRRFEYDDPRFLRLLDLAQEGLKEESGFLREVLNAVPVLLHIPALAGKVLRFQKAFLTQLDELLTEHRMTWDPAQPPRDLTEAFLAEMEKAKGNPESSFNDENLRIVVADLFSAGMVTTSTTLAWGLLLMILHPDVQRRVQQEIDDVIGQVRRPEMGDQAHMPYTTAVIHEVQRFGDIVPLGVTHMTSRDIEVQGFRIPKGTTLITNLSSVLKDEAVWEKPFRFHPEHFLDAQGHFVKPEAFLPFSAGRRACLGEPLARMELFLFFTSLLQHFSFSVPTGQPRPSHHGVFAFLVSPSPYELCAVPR
CDK6/cyclin D3, sequence (P30281 whole entry): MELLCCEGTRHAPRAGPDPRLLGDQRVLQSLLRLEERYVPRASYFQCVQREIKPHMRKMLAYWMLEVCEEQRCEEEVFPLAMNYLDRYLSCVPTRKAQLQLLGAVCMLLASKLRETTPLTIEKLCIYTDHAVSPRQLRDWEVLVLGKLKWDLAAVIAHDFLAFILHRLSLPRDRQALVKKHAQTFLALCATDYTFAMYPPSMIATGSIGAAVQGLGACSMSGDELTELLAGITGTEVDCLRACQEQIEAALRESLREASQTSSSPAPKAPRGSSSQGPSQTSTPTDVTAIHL
CDK6/cyclin D3, sequence (Q00534 whole entry): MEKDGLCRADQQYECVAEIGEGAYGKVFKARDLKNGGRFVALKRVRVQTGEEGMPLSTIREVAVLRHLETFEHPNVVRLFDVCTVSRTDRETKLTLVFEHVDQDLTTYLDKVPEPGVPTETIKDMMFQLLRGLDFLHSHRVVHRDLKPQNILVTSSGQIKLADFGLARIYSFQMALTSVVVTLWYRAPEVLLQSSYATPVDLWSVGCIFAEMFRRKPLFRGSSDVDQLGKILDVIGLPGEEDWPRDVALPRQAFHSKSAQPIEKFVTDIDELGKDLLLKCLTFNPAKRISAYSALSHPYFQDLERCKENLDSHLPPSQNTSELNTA
Cellular tumor antigen p53 (Homo sapiens), sequence (P04637 whole entry, looked up): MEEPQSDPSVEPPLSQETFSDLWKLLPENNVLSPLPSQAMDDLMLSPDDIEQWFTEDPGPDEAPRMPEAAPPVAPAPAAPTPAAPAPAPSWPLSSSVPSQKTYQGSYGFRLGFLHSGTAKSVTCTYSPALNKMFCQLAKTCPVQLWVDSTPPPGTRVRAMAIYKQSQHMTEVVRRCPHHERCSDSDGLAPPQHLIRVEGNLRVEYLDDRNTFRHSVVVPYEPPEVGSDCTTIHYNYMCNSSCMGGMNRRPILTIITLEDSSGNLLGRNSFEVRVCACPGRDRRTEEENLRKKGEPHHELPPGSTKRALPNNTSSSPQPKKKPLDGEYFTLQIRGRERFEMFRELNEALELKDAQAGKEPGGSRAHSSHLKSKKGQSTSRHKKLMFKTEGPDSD
E3 ubiquitin-protein ligase Mdm2 (Homo sapiens), sequence (Q00987 whole entry, looked up): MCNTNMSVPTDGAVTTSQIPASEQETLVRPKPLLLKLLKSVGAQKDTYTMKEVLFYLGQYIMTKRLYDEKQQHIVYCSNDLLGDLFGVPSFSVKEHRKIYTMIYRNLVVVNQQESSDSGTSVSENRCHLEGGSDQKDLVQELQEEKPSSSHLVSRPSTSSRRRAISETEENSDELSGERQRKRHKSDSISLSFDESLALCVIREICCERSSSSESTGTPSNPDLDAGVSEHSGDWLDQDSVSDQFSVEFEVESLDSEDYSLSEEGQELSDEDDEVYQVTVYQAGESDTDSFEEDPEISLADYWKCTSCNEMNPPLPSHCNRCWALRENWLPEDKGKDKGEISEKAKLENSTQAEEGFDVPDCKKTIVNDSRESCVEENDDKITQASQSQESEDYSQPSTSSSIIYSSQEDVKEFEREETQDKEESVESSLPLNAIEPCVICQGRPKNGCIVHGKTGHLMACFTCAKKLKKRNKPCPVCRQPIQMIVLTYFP
CYP2C19, sequence (P33261 whole entry): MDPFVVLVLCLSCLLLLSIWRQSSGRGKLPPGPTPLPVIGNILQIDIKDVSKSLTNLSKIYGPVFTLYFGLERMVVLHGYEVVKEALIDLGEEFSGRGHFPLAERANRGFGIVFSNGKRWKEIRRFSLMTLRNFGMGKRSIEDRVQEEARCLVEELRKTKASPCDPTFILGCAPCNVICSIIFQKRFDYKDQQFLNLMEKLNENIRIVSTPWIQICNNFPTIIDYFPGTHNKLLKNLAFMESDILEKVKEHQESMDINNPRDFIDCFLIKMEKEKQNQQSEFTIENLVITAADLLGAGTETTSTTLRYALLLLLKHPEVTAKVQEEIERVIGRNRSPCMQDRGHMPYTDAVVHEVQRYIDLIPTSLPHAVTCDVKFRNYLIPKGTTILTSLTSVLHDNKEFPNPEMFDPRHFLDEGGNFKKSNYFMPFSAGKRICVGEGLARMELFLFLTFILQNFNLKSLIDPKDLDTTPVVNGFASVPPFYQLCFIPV

CC(C)Oc1cc(F)ccc1-c1ccnc(NC(=O)Nc2cccc(C(=O)N3CCN(C)CC3)c2)c1
Activity [1]: Non-toxic | microsomal CLint at 100 µM [2]: 352 µL/min/mg | inhibition at 10 µM (CYP2C19): 69.6% | half-life [3]: 55.2 min | Activity [4]: Non-toxic | IC50 (CDK6/cyclin D3): 7.94 µM | IC50 (CDK9/cyclin T1): 0.00651 µM | Activity (HCT-116 [5]): inactive | Activity [6]: Active | inhibition [7]: Active | MRT inf [8]: 125 min | Tmax [9]: 30 min | Activity (HCT-116 [10]): Active | Activity (HCT-116 [11]): Active | half-life at 100 µM [12]: > 289 min | Activity [13]: Non-toxic | AUC(0-inf) [14]: 407 ng·h/mL | AUC [15]: 1611 ng·h/mL | Activity [16]: Active | AUC(0-t) at 24 h [17]: 1610 ng·h/mL | Activity (Mitochondrial membrane): Active | Activity (HepG2): Active | Activity [18]: Non-toxic | AUC [19]: 900 ng·h/mL | Vd [20]: 6.52 L/kg | IC50 (CDK1/Cyclin A): 3.87 µM | Activity [21]: Non-toxic | Activity (HCT-116 [22]): Dose-dependent-effect | Activity (HCT-116 [23]): Active | inhibition at 10 µM (CYP2D6): 42.6% | half-life [24]: 47 min | Activity [25]: Non-toxic | Activity (HCT-116 [26]): Dose-dependent-effect | Activity (A549): Active | Activity (HCT-116 [27]): inactive
